Experimental data taken from patent US20170174633A1 (RESEARCH TRIANGLE INSTITUTE, priority 2014, published 2017).
Values joined by “and” are separate entries in the source; they are usually repeats but may differ in a detail not shown here. Identical values can stand only once. Like-named read-outs stand apart in the source and are kept apart here.

Tests used:
rNTS1 receptor [1] = biological target: T1, rNTS1 receptor (Rattus norvegicus, UniProt P20789); assay: 125I-NT competitive binding assay, whole CHO-kl cells over-expressing rNTS1; settings: competition with 125I-NT, read-out: NTS1 Ki
T1 construct: expressed in transfected cells
Protocol: (§1) The binding affinities of the test compounds for the rNTS1 and rNTS2 receptors listed in Tables 1 through 4 were determined using previously reported competitive binding assays^49. The NTS1 and 2 receptors were labeled using ^125I-NT. The cells used in the binding assay were CHO-kl cells (American Type Culture Collection) engineered to over-express either the rNTS1 or rNTS2 receptor. Measures of functional agonism and antagonism were obtained by measuring changes in intensity of a calcium-sensitive fluorescent dye as an indirect measure of changes in internal calcium concentrations. These measurements were performed using a FLIPR Tetra (NTS2) or a FlexStation II plate reader for NTS1 (Molecular Devices) and were analyzed using GraphPad Prism software. Antagonism was measured as inhibition of NT-induced calcium release (NTS1) or inhibition of SR142948 (5b)-induced calcium release (NTS2).
Briefly, cells were plated at 100,000 cells/well in 24-well plates in complete DMEM/F12 medium supplemented with 10% fetal bovine serum, 100 units of penicillin/mL, 100 μg of streptomycin/mL, 0.1 mg/mL of normocin, and 250 μg/mL geneticin. Cells were incubated at 37° C. with 5% CO2 and 95% humidity for 48 hrs. Cells were then equilibrated for 10 minutes in Earle's buffer (130 mM NaCl, 5 mM KCl, 1.8 mM CaCl2, 0.8 mM MgCl2, and 20 mM HEPES, pH 7.4) supplemented with 0.1% BSA and 0.1% glucose, and then incubated with or without 10 nM test compound in 0.1 nM ^125I-NT at 37° C. for 30 min. Cells were washed twice in Earle's buffer, extracted in 1 ml 0.1N NaOH and counted in a Packard Cobra II Gamma Counter for 1 minute.
(§2) To determine EC50, IC50, and Ke values, data were fit to a three-parameter logistic equation using GraphPad Prism software. Ki values for radioligand binding assays were determined from ICso values using the equation of Cheng and Prusoff. All data are from at least three independent experiments run in duplicate wells.

rNTS2 receptor [2] = biological target: T2, rNTS2 receptor (Rattus norvegicus, UniProt Q63384); assay: Calcium mobilization assay for NTS2 receptor (FLIPR Tetra); assay type: cell-based; settings: FLIPR assay, ± SEM; for NTS2 Emax % of 5b: calcium release relative to 5b; for EC50: compound induced calcium release, CHO-kl-rNTS2 cells
T2 construct: expressed in transfected cells
T2 sequence (Q63384 1-416): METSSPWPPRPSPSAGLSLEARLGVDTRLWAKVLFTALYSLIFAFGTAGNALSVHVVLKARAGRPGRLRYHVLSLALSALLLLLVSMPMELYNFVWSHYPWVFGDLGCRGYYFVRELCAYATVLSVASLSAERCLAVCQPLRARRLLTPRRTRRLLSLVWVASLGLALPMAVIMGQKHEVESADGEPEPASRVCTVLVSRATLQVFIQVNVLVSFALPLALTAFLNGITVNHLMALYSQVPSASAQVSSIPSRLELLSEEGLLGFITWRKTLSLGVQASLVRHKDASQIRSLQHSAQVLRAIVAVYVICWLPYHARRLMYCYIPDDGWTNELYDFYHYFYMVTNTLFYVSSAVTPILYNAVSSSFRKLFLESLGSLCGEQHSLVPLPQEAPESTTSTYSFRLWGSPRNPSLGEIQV
Protocol: as §1, with “The NTS1 and 2 receptors were labeled using ^125I-NT.” left out, “software.” for “software. Antagonism was measured as inhibition of NT-induced calcium release (NTS1) or inhibition of SR142948 (5b)-induced calcium release (NTS2).”
CHO-kl-rNTS2 cells were maintained in DMEM/F12 supplemented with 10% FBS, pen/strep, 100 μg/ml normocin, and 400 μg/ml geneticin. For calcium mobilization assays, cells were plated at 25,000 cells/well in black, clear-bottom 96-well plates 24 hrs before the assay and incubated at 37° C., 5% CO2. 100 μl reconstituted Calcium 5 dye (Molecular Devices, diluted 1:20 in assay buffer (1×HBSS, 20 mM HEPES, 2.5 mM Probenicid, pH 7.4)) was added per well and plates were incubated for 45 min at 37° C., 5% CO2. […] Full-log serial dilutions of the test compounds were made at 10× the desired final concentration in 1% DMSO assay buffer and warmed to 37° C. After the pre-treatment incubation, fluorescence intensity was measured on a FLIPR Tetra fluorometric imaging plate reader (Molecular Devices). Relative Fluorescence Units (RFUs) were measured every second for 100 seconds (14 readings before compound addition to establish baseline fluorescence, 85 after) Exposure time 0.53 s, Gain=2000, Excitation intensity=30%, Gate open=10%. For antagonist assays, 1/10 volume of 10×concentration of the test compound dilutions in 10% DMSO in assay buffer was added to cells in lieu of the 10% DMSO only in assay buffer for the pre-treatment.
as §2

rNTS1 receptor [3] = biological target: T1, rNTS1 receptor; assay: Calcium mobilization assay for NTS1 receptor (FLIPR assay, FlexStation II); assay type: cell-based; settings: antagonism of NT induced calcium release; ± SEM; read-out: NTS1 Ke
Protocol: as §1, with “The NTS1 and 2 receptors were labeled using ^125I-NT.” left out, “software.” for “software. Antagonism was measured as inhibition of NT-induced calcium release (NTS1) or inhibition of SR142948 (5b)-induced calcium release (NTS2).”
CHO-kl-rNTS1 cells were maintained in DMEM/F12 medium supplemented with 10% fetal bovine serum (Gibco), 100 U/ml penicillin/100 ug/ml streptomycin, 100 ug/ml normocin (Invivogen), and 250 ug/ml geneticin. For calcium mobilization assays, cells were plated at 30,000 cells/well in black, clear-bottom 96-well plates 24 hrs before the assay and incubated at 37° C., 5% CO2. Prior to the assay, Calcium 5 dye (Molecular Devices) was reconstituted according to manufacturer instructions. The reconstituted dye was diluted 1:40 in assay buffer (lx HBSS, 20 mM HEPES, and 2.5 mM Probenicid (Sigma), pH 7.4). Growth media was removed and 200 ul of this diluted dye was added to each well. Plates were incubated for 45 min at 37° C., 5% CO2 after dye addition. […] Full-log serial dilutions of the test compounds were made at 10× the desired final concentration in 1% DMSO assay buffer and warmed to 37° C. After the pre-treatment incubation, fluorescence intensity was measured on a FlexStation II fluorometric imaging plate reader (Molecular Devices). Relative fluorescence units (RFU) were measured before (20 readings) and after (40 readings) the agonist compound addition for a total 60 second read time (Excitation=485 nm, Emission=525 nm, cutoff=515 nm). For antagonist assays, cells were treated with Calcium dye for 45 min at 37° C., 5% CO2 as with the agonist assays. Then the test antagonist compounds were added in 1% DMSO in assay buffer and the plate was incubated for 15 min at 37° C., 5% CO2.
as §2

rNTS2 receptor [4] = biological target: T2, rNTS2 receptor; assay: 125I-NT competitive binding assay, whole CHO-kl cells over-expressing rNTS2; settings: for Ki: competition with 125I-NT, ± SEM, read-out: 125I-NT Binding NTS2 Ki; for NTS2/NTS1 selectivity ratio: ratio of 125I-NT binding Ki at NTS1 and NTS2; for selectivity for NTS2 (versus NTS1): relative binding affinities at NTS1 and NTS2
Protocol: as §1, with “The NTS1 and 2 receptors were labeled using ^125I-NT.” left out, “software.” for “software. Antagonism was measured as inhibition of NT-induced calcium release (NTS1) or inhibition of SR142948 (5b)-induced calcium release (NTS2).”
Briefly, cells were plated at 100,000 cells/well in 24-well plates in complete DMEM/F12 medium supplemented with 10% fetal bovine serum, 100 units of penicillin/mL, 100 μg of streptomycin/mL, 0.1 mg/mL of normocin, and 250 μg/mL geneticin. Cells were incubated at 37° C. with 5% CO2 and 95% humidity for 48 hrs. […] Cells were washed twice in Earle's buffer, extracted in 1 ml 0.1N NaOH and counted in a Packard Cobra II Gamma Counter for 1 minute.
as §2

NTS2 versus NTS1 = settings: literature report; cited from earlier work
[5] = literature report; cited from earlier work

T1 sequence (P20789 whole entry): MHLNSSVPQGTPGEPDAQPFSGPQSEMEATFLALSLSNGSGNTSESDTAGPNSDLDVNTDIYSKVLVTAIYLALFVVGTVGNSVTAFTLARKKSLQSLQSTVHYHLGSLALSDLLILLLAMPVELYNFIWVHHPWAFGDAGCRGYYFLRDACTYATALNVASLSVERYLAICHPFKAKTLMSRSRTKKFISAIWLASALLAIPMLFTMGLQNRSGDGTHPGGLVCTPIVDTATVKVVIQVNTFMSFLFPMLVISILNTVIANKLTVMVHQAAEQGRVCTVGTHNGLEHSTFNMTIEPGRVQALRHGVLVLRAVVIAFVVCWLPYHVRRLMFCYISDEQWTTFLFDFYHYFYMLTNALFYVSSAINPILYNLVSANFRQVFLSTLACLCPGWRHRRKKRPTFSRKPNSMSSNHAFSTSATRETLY

| Compound | Ki (rNTS1 receptor [1]; ± SEM) | NTS2 Emax % of 5b (rNTS2 receptor [2]) | EC50 (rNTS2 receptor [2]) | Kb (rNTS1 receptor [3]) | Ki (rNTS2 receptor [4]) | NTS2/NTS1 selectivity ratio (rNTS2 receptor [4]) | selectivity for NTS2 (versus NTS1) (NTS2 versus NTS1) | plasma stability [5] | Ki (rNTS1 receptor [1]; bound given in uM) | selectivity for NTS2 (versus NTS1) (rNTS2 receptor [4]) |
| --- | --- | --- | --- | --- | --- | --- | --- | --- | --- | --- |
| COc1ccccc1-c1cc(C(=O)NC2(C(=O)O)C3CC4CC(C3)CC2C4)nn1-c1ccc(F)cc1 (stereo not drawn) [compound 31, 2-({[1-(4-fluorophenyl)-5-(2-methoxyphenyl)-1H-pyrazol-3-yl]carbonyl}amino)tricyclo[3.3.1.13,7]decane-2-carboxylic acid] | 4.33 ± 0.656 µM | 42 ± 12 % of 5b | 138 ± 55 nM | 3810 ± 422 nM | 23 ± 5 nM | 188 | – | – | – | – |
| (N^αMe)Arg-Lys-Pro-N-homo-Tyr-Ile-Leu [4b] | – | – | – | – | – | – | 22,000 fold | excellent plasma stability | – | – |
| COc1ccc(OC)c(-c2cc(C(=O)N[C@H](C(=O)O)C3CCCCC3)nn2-c2ccnc3cc(Cl)ccc23)c1 [15b, (2S)-({[1-(7-chloroquinolin-4-yl)-5-(2,5-dimethoxyphenyl)-1H-pyrazol-3-yl]carbonyl}amino) (cyclohexyl)ethanoic acid] | – | 19 ± 3 % of 5b | 216 ± 29 nM | 1280 ± 544 nM | 604 ± 141 nM | – | – | – | – | – |
| COc1ccccc1-c1cc(C(=O)NC2(C(=O)O)CCCCC2)nn1-c1ccc(F)cc1 [7b, 1-({[1-(4-Fluorophenyl)-5-(2-methoxyphenyl)-1H-pyrazol-3-yl]carbonyl}amino)cyclo-hexane carboxylic Acid] | – | 7 ± 2 % of 5b | 12 ± 6 nM | – | 153 ± 10 nM | 161 | – | – | > 25 µM | 161 fold |
| COc1cccc(OC)c1-c1cc(C(=O)NC2(C(=O)O)CCCCC2)nn1-c1ccc(F)cc1 [29b, 1-({[5-(2,6-Dimethoxyphenyl)-1-(4-fluorophenyl)-1H-pyrazol-3-yl]carbonyl}amino)cyclohexane-carboxylic Acid] | 3.21 ± 0.879 µM | 12 ± 0.5 % of 5b | 19 ± 3 nM | – | 140 ± 29 nM | 23 | – | – | – | 23 fold |
| Arg-Arg-Pro-N-homo-Tyr-Ile-Leu [4a] | – | – | – | – | – | – | 12,000 fold | – | – | – |
| COc1ccccc1-c1cc(C(=O)NC2(C(=O)O)CCCCC2)nn1-c1cccc2ccccc12 [27b, 1-({[5-(2-Methoxyphenyl)-1-naphthalen-1-yl-1H-pyrazol-3-yl]carbonyl}amino)cyclohexane-carboxylic Acid] | – | 18 % of 5b and 18 ± 2 % of 5b | 108 ± 8 nM | 7380 ± 1130 nM | 694 ± 178 nM | – | – | – | – | – |
| COc1cccc(OC)c1-c1cc(C(=O)NC2(C(=O)O)CCCC2)nn1-c1ccnc2cc(Cl)ccc12 [22b, 1-({[1-(7-Chloroquinolin-4-yl)-5-(2,6-dimethoxyphenyl)-1H-pyrazol-3-yl]carbonyl}amino)cyclo-pentanecarboxylic Acid] | – | 76 ± 4 % of 5b | 20 ± 4 nM | 222 ± 14 nM | 102 nM | – | – | – | – | – |
| (N^αMe)Arg-Lys-Pro-D-3,1-Nal-tLeu-Leu [compound 3] | – | – | – | – | – | – | > 100 fold | – | – | – |
| COc1ccccc1-c1cc(C(=O)N[C@H](C(=O)O)C2CCCCC2)nn1-c1cccc2ccccc12 [25b, (2S)-Cyclohexyl({[5-(2-methoxyphenyl)-1-naphthalen-1-yl-1H-pyrazol-3-yl]carbonyl}amino) ethanoic Acid] | – | 18 ± 2 % of 5b | 229 ± 8 nM | 1400 ± 330 nM | 2690 ± 639 nM | – | – | – | – | – |
| COc1cccc(OC)c1-c1cc(C(=O)NC2(C(=O)O)C3CC4CC(C3)CC2C4)nn1-c1ccc(F)cc1 (stereo not drawn) [compound 30, 2-({[5-(2,6-Dimethoxyphenyl)-1-(4-fluorophenyl)-1H-pyrazol-3-yl]carbonyl}amino) tricyclo[3.3.1.13,7]decane-2-carboxylic Acid] | – | 34 % of 5b and 34 ± 5 % of 5b | 68 nM | 191 ± 47 nM | 110 ± 29 nM | – | – | – | – | – |
